Test results reported in patent US7915292B2, “Antibacterial quinoline derivatives” (Janssen Pharmaceutica NV, priority 2005, dated 2011).
Converted amounts (≈) assume the structure as drawn.

Key:
[1] = system: M. Smegmatis ATCC607; assay: In-vitro anti-bacterial activity against strain M. smegmatis ATCC607 (Alamar Blue growth inhibition); format: cell-based; conditions: 48 hours incubation; for IC50: Mycolicibacterium smegmatis, read-out: M. smegmatis pIC50 (converted)
Experimental: Serial five-fold dilutions (45 μl in 180 μl) were made directly in the microtiter plates from column 2 to 11 using a customised robot system (Zymark Corp., Hopkinton, Mass.). Pipette tips were changed after every 3 dilutions to minimize pipetting errors with high hydrophobic compounds. Untreated control samples with (column 1) and without (column 12) inoculum were included in each microtiter plate. Approximately 250 CFU per well of bacteria inoculum, in a volume of 100 μl in 2.8× Mueller-Hinton broth medium, was added to the rows […]. The same volume of broth medium without inoculum was added to column 12 in row A to H. The cultures were incubated at 37° C. for 48 hours in a humidified 5% CO2 atmosphere (incubator with open air valve and continuous ventilation). At the end of incubation, two days after inoculation, the bacterial growth was quantitated fluorometrically. Therefore Alamar Blue (10×) was added to all wells in a volume of 20 μl and plates were incubated for another 2 hours at […] The fluorescence was read in a computer-controlled fluorometer (Cytofluor, Biosearch) at an excitation wavelength of 530 nm and an emission wavelength of 590 nm (gain 30). The percentage growth inhibition achieved by the compounds was calculated according to standard methods and expressed as pIC50 values.

[2] = system: ECO 25922; assay: Microtitre plate assay, IC90 determination, ECO 25922; format: cell-based, E. coli; conditions: 90% inhibitory concentration for bacterial growth, strain ECO 25922, 24 hours at 37° C.; for IC90: Escherichia coli, read-out: IC90 (μg/ml) ECO 25922
Experimental: (§1) Stocks (0.5 ml/tube) were stored at -70° C. until use. Bacteria titrations were performed in microtiter plates to detect the TCID50, in which the TCID50 represents the dilution that gives rise to bacterial growth in 50% of inoculated cultures. In general, an inoculum level of approximately 100 TCID50 was used for susceptibility testing. […] Serial five-fold dilutions (45 μl in 180 μl) were made directly in the microtiter plates from column 2 to reach column 11. Untreated control samples with (column 1) and without (column 12) inoculum were included in each microtiter plate. Depending on the bacteria type, approximately 10 to 60 CFU per well of bacteria inoculum (100 TCID50), in a volume of 100 μl in 2.8× Mueller-Hinton broth medium, was added to the rows […]. The same volume of broth medium without inoculum was added to column 12 in row A to H. The cultures were incubated at 37° C. for 24 hours under a normal atmosphere (incubator with open air valve and continuous ventilation). At the end of incubation, one day after inoculation, the bacterial growth was quantitated fluorometrically. Therefore resazurin (0.6 mg/ml) was added in a volume of 20 μl to all wells 3 hours after inoculation, and the plates were re-incubated overnight. A change in colour from blue to pink indicated the growth of bacteria. The fluorescence was read in a computer-controlled fluorometer (Cytofluor Biosearch) at an excitation wavelength of 530 nm and an emission wavelength of 590 nm. The % growth inhibition achieved by the compounds was calculated according to standard methods. The IC90 (expressed in μg/ml) was defined as the 90% inhibitory concentration for bacterial growth.

[3] = system: Mycobacterium tuberculosis (strain H37RV); assay: In-vitro method for testing compounds against M. tuberculosis (resazurin growth inhibition); format: cell-based; conditions: Mycobacterium tuberculosis, 168 h, 7 days incubation, read-out: M. tuberculosis pIC50 (converted)
[4] = system: STA 29213; assay: Microtitre plate assay, IC90 determination, STA 29213; format: cell-based, S. aureus; conditions: 90% inhibitory concentration for bacterial growth, strain STA 29213, 24 hours at 37° C.; for IC90: Staphylococcus aureus, read-out: IC90 (μg/ml) STA 29213
Experimental: as §1

[5] = system: EFA 29212; assay: Microtitre plate assay, IC90 determination, EFA 29212; format: cell-based, E. faecalis; conditions: Enterococcus faecalis; 90% inhibitory concentration for bacterial growth; strain EFA 29212; 24 hours at 37° C.; read-out: IC90 (μg/ml) EFA 29212
Experimental: as §1

[6] = system: LMO 49594; assay: Microtitre plate assay, IC90 determination, LMO 49594; format: cell-based, Listeria monocytogenes; conditions: Listeria monocytogenes; 90% inhibitory concentration for bacterial growth; strain LMO 49594; 24 hours at 37° C.; read-out: IC90 (μg/ml) LMO 49594
Experimental: as §1

[7] = system: BSU 43639; assay: Microtitre plate assay, IC90 determination, BSU 43639; format: cell-based, Bacillus subtilis; conditions: Bacillus subtilis; 90% inhibitory concentration for bacterial growth; strain BSU 43639; 24 hours at 37° C.; read-out: IC90 (μg/ml) BSU 43639
Experimental: as §1

[8] = system: PAE 27853; assay: Microtitre plate assay, IC90 determination, PAE 27853; format: cell-based, Pseudomonas aeruginosa; conditions: Pseudomonas aeruginosa; 90% inhibitory concentration for bacterial growth; strain PAE 27853; 24 hours at 37° C.; read-out: IC90 (μg/ml) PAE 27853
Experimental: as §1

[9] = system: SMU 33402; assay: Microtitre plate assay, IC90 determination, SMU 33402; format: cell-based, S. mutans; conditions: Streptococcus mutans; 90% inhibitory concentration for bacterial growth; strain SMU 33402; 24 hours at 37° C.; read-out: IC90 (μg/ml) SMU 33402
Experimental: as §1

[10] = system: SPN 6305; assay: Microtitre plate assay, IC90 determination, SPN 6305; format: cell-based, S. pneumoniae; conditions: 90% inhibitory concentration for bacterial growth, strain SPN 6305, 24 hours at 37° C.
Experimental: as §1

[11] = system: SPY 8668; assay: Microtitre plate assay, IC90 determination, SPY 8668; format: cell-based, S. pyogens; conditions: 90% inhibitory concentration for bacterial growth; strain SPY 8668; 24 hours at 37° C.; read-out: IC90 (μg/ml) SPY 8668
Experimental: as §1

[12] = system: STA 25923; assay: Microtitre plate assay, IC90 determination, STA 25923; format: cell-based, S. aureus; conditions: Staphylococcus aureus; 90% inhibitory concentration for bacterial growth; strain STA 25923; 24 hours at 37° C.; read-out: IC90 (μg/ml) STA 25923
Experimental: as §1

[13] = system: STA RMETH; assay: Microtitre plate assay, IC90 determination, STA RMETH; format: cell-based, S. aureus; conditions: Staphylococcus aureus; 90% inhibitory concentration for bacterial growth; strain STA RMETH; 24 hours at 37° C.; read-out: IC90 (μg/ml) STA RMETH
Experimental: as §1

Compound: COc1nc2ccc(C)cc2cc1C(c1ccccc1)N(CC(=O)N1CCOCC1)Cc1ccccc1 (stereo not drawn) [Compound 59]
- IC50 [1]: 1580 nM
- IC90 [2]: 12.4 µg/mL (≈ 25 µM)
- melting point: 126 °C

Compound: Cc1ccc2nc(-c3ccccc3)c(C(c3ccccc3)N(CC(=O)N3CCCCC3)Cc3ccccc3)cc2c1 (stereo not drawn) [Compound 66]
- IC50 [3]: 39800 nM
- IC50 [1]: 2510 nM
- IC90 [2]: 13.6 µg/mL (≈ 25.2 µM)
- melting point: 78 °C

Compound: Cc1ccc2nc(-c3ccccc3)c(C(c3ccccc3)N(CC(=O)NN3CCN(C)CC3)Cc3ccccc3)cc2c1 (stereo not drawn) [Compound 69]
- IC50 [1]: 1580 nM
- IC90 [4]: 9 µg/mL (≈ 15.8 µM)

Compound: Cc1ccc2nc(-c3ccccc3)c(C(c3ccccc3)N(CC(=O)N3CCSCC3)Cc3ccccc3)cc2c1 (stereo not drawn) [Compound 70]
- IC50 [3]: 3160 nM
- IC50 [1]: 251 nM
- IC90 [2]: 14 µg/mL (≈ 25.1 µM)
- IC90 [5]: 14 µg/mL (≈ 25.1 µM)
- IC90 [6]: 14 µg/mL (≈ 25.1 µM)
- melting point: 144 °C

Compound: COc1nc2ccc(Br)cc2cc1C(c1ccccc1)N(CC(=O)N1CCN(C)CC1)Cc1ccccc1 (stereo not drawn) [Compound 104]
- IC50 [1]: 1580 nM
- IC90 [7]: 12.8 µg/mL (≈ 22.3 µM)
- IC90 [2]: 14.4 µg/mL (≈ 25.1 µM)
- IC90 [8]: 14.4 µg/mL (≈ 25.1 µM)
- IC90 [9]: 11.4 µg/mL (≈ 19.9 µM)
- IC90 ([10]; Streptococcus pneumoniae, read-out: IC90 (μg/ml) SPN 6305): 14.4 µg/mL (≈ 25.1 µM)
- IC90 [11]: 11.4 µg/mL (≈ 19.9 µM)
- IC90 [12]: 12.8 µg/mL (≈ 22.3 µM)
- IC90 [4]: 11.4 µg/mL (≈ 19.9 µM)
- IC90 [13]: 12.8 µg/mL (≈ 22.3 µM)
- melting point: 152 °C

Compound: COc1nc2ccc(Br)cc2cc1C(c1ccccc1)N(CC(=O)N1CCOCC1)Cc1ccccc1 (stereo not drawn) [Compound 112]
- M. smegmatis pIC50 [1]: 5.8
- IC90 (μg/ml) STA 29213 [4]: 14.1 µg/mL (≈ 25.2 µM)

Compound: COc1nc2ccc(C#N)cc2cc1C(c1ccccc1)N(CC(=O)N1CCCC1)Cc1ccccc1 (stereo not drawn) [Compound 122]
- IC50 [1]: 63100 nM
- IC90 [2]: 12.3 µg/mL (≈ 25.1 µM)
- melting point: 161 °C

Compound: COc1nc2ccc(C#N)cc2cc1C(c1ccccc1)N(CC(=O)N1CCN(C)CC1)Cc1ccccc1 (stereo not drawn) [Compound 123]
- M. smegmatis pIC50 [1]: 5.2
- IC90 (μg/ml) ECO 25922 [2]: 13.1 µg/mL (≈ 25.2 µM)
- IC90 (μg/ml) SPN 6305 [10]: 13.1 µg/mL (≈ 25.2 µM)

Compound: CCOC(=O)CN(Cc1ccccc1)C(c1ccccc1)c1cc2cc(Br)ccc2nc1OC (stereo not drawn) [Compound 137]
- IC90 [2]: 13 µg/mL (≈ 25 µM)
- IC90 [12]: 11.6 µg/mL (≈ 22.3 µM)

Compound: CCOC(=O)CN(Cc1cccc2ncccc12)C(c1ccccc1)c1cc2cc(Br)ccc2nc1OC (stereo not drawn) [Compound 145]
- IC50 [1]: 31600 nM
- melting point: 96 °C

Compound: CCOC(=O)CN(Cc1ccccc1)C(c1ccccc1)c1cc2cc(C#N)ccc2nc1OC (stereo not drawn) [Compound 151]
- melting point: 148 °C
